Measurements published in patent US5527775A, “Reduction of mammalian neoplasms with phospholipase A2 activating substances” (Enzon, Inc., priority 1994, dated 1996).
Read-outs that look alike come from different tables or passages of the source.

Experiments:
PLA2 = settings: Salari et al., Mol. Pharm. 28:546 (1985), cited from earlier work
phospholipase A2 = assay: stimulation of phospholipase A2 activity in vitro; format: biochemical; settings: in vitro (unpublished results)
From the text: As used herein phospholipase A2 activating agents, PLAA, are defined as agents which induce phospholipase A2 activity. A variety of procedures are known in the art for assaying an agent for PLAA activity. These include, but are not limited to, assaying cultured endothelial cells or smooth muscle cells for the release of arachidonic acid in the presence of the agent as well as cell free systems which utilize 1-palmitoyl-2-[14C]arachidonyl-sn-glycero-3-phospho-[methy13H]choline to assay for PLA2 activity (see Clark et al., J. Biol. Chem. 261:10713-10718 (1986) and Clark et al., Biochem. J. 250:125-132 (1988).

mononuclear cells = assay: immunocytochemical analysis of tumors (mononuclear cell infiltrate); format: in vivo, rat; settings: frozen sections of tumor tissues reacted with MAbs
From the text: Snap-frozen tissue samples were sectioned on a cryotome, fixed in acetone, blocked with levamisole, and then reacted with monoclonal antibodies to cell surface determinants expressed by mononuclear cells. After washing, tissue sections were reacted with biotin-labelled rat anti-mouse IgG monoclonal antibodies, alkaline phosphate-labelled avidin-biotin complex (ABC, Vecta, Burlinghame, Calif.) and color developed by the addition of appropriate substrate. Sections were then mounted in Permount (Fisher Scientific) and read in an Olympus light microscope.
To determine whether PLAP-induced tumor necrosis was associated with specific cellular events, frozen sections of tumor tissues were reacted with MAbs directed at subpopulations of mononuclear cells. […] Thus, PLAP-induced tumor necrosis appears to be mediated through enhanced NK/LAK cell activation.

[1] = system: MTVL murine mammary tumor cells; assay: survival of mice injected with mammary tumor cells; format: in vivo, Balb C mice; settings: 200 μg agarose bound peptide 1 and 4 days after tumor cells; vs agarose beads alone; p<0.001 (FIG. 4)
Method: (§1) Balb C mice were injected with 10^6 MTVL murine mammary tumor cells. The mice were treated with 200 μg of agarose complexed PLAP peptide 1 and 4 days after injection of the tumor cells. The animals were checked daily for survival. The results obtained are the average for twenty animals in each group. Animals that received no treatment (.smallcircle.),animals that received PLAP ( ) p<0.001.
The effectiveness of stimulating tumor necrosis for tumors other than gliomas was tested. To test effectiveness of the present methods in treating neoplastic mammary cells, Balb C mice were injected with 10^6 MTVL murine mammary tumor cells as described above for the glioma cells. The mice were treated with 200 μg of agarose bound PLAP peptide 1 and 4 days after injection of the tumor cells. The animals were checked daily for survival. FIG. 4 provides the average of the results obtained for twenty animals in each group.

[2] = system: eicosanoids in exudates obtained from tumors; assay: measurement of eicosanoids in tumor exudates; format: in vivo, rat; settings: 72 hours after injection
Method: (§2) Seventy-two hours after injection, the animals were euthanized by using CO2 gas. The tumor effusions were aspirated and the tumor cell numbers were determined using a Coulter counter. The samples were frozen and stored at -80° for later eicosanoid assay. The tumor masses were removed through an incision made in the dorsum of the animal and weighed. Samples of tumor tissues were stored in formalin for routine histology or snap-frozen in liquid N2 for immunocytochemistry.
Eicosanoid levels in exudates obtained from tumors were determined using enzyme-lined immunoassay kits purchased from Cayman Chemical Company (Ann Arbor, Mich.) and used as recommended by the supplier. Calculations of the amounts of eicosanoids were made using EPA software purchased from the same company.

[3] = system: LL-2 murine lung tumor cells; assay: survival of mice injected with lung tumor cells; format: in vivo, C57 Bl/6 mice; settings: 200 μg agarose bound peptide 1 and 4 days after tumor cells; vs agarose beads alone; p<0.0001 (FIG. 5)
Method: as §1, with “C57 Bl/6” for “Balb C”, “LL-2” for “MTVL”, “lung” for “mammary”, “result” for “results”, “(.smallcircle.), animals” for “(.smallcircle.),animals”, “p<0.0001.” for “p<0.001.”
To test the effectiveness of the present methods in treating neoplastic lung cells, C57 Bl/6 mice were injected with 10^6 LL-2 murine lung tumor cells as described above for the glioma cells. The mice were treated with 200 μg of agarose bound PLAP peptide 1 and 4 days after injection of the tumor cells. The animals were checked daily for survival. FIG. 5 provides the average of the result obtained for twenty animals in each group were used.

C6 glioma cells = assay: rat air pouch glioma model: tumor thickness, weight and necrosis; format: in vivo
Method: C6 glioma cells (10^7) were injected into rats and allowed to grow for two weeks. The average thickness of the tumors was approximately 7±2 mm in thickness. The animals were then treated with 500 μg of either agarose complexed PLAP peptide SEQ ID NO. 1 or agarose complexed PLAP-like peptide in which the two adjacent prolines were deleted. After three days of treatment, the animals were given a second injection of the peptide and the tumors were measured on day 6 of the treatment regimen.
C6 glioma cells (10^7) were injected into rats and allowed to grow for two weeks as in FIG. 1. By day 14, the tumors were approximately 7 mm in thickness. The animals were then given the indicated concentrations of the agarose complexed PLAP peptide. The thickness of the tumor was monitored after three days of treatment and the values are shown as a percentage of reduction in the tumor cell mass.
Sprague-Dawley rats were injected with 10^6 C-6 glioma cells. The tumors were allowed to grow for 14 days prior to injection of 500 μg of agarose complexed PLAP peptide. Tumor thickness was measured after 3 and 6 days of treatment.
G6 glioma cells, derived from a glioma induced in the Wistar strain of rat and obtained from the American Type Culture Collection (ATCC) were maintained in tissue culture. The cell cultures were grown to confluence in 75 cm^2 tissue culture flasks, detached from the flasks by addition of trypsin/EDTA, washed twice in fresh culture medium, and resuspended at a final concentration of 2×10^6 cells per ml.
Air pouches were formed in female Sprague-Dawley rats (average age 6-8 weeks; average weight 180 grams). Briefly, 20 cc's of sterile air was injected into the subcutaneous tissues on the dorsum of the animal to form an air filled pouch. Inflation of the pouches was maintained by re-injection of sterile air every other day. Pouches were ready for use on day 7.
Suspension of cultured glioma cells (1×10^6 -1×10^7 cells) were injected into the air pouches. By day 14, the tumors typically were of sufficient size to be used as described below.
Animals were injected with 500 μgrams of PLAP peptide bound to agarose beads. A similar number of rats were injected with unmodified agarose beads as a control. In order to ensure uniform distribution of the bound peptide, the total volumes injected were increased to 5 ml by the addition of sterile saline immediately prior to injection. Since tumor growth was characterized by formation of large effusions containing high levels of eicosanoids, the tumors were aspirated immediately prior to injection of PLAP peptide or agarose beads alone.
as §2, with “Samples of tumor tissues were stored in formalin for routine histology or snap-frozen in liquid N2 for immunocytochemistry.” left out
To determine the effect of concentration of PLAP peptide on tumor cell number and tumor size, Sprague-Dawley rats were injected with 10^6 C-6 glioma cells as described above, and were then treated with either 0, 0.25, 0.5, or 1 mg/rat PLAP. Three days after treatment, the maximum thickness of the tumors was measured.
To determine the length of the effectiveness of administering PLAP peptide, Sprague-Dawley rats were injected with 10^6 C-6 glioma cells as described above. […] Tumor thickness was measured 3 and 6 days after treatment.

neutrophil = settings: Bomalaski et al., J. Immuno. (1989); cited from earlier work

Molecule: CC[C@H](C)[C@H](NC(=O)CN)C(=O)NCC(=O)N[C@@H](C)C(=O)N[C@H](C(=O)N[C@@H](CC(C)C)C(=O)N[C@@H](CCCCN)C(=O)N[C@H](C(=O)N[C@@H](CC(C)C)C(=O)N[C@H](C(=O)N[C@H](C(=O)NCC(=O)N[C@@H](CC(C)C)C(=O)N1CCC[C@H]1C(=O)N[C@@H](C)C(=O)N[C@@H](CC(C)C)C(=O)N[C@H](C(=O)N[C@@H](CO)C(=O)N[C@@H](Cc1c[nH]c2ccccc12)C(=O)N[C@H](C(=O)N[C@@H](CCCCN)C(=O)N[C@@H](CCCNC(=N)N)C(=O)N[C@@H](CCCCN)C(=O)N[C@@H](CCCNC(=N)N)C(=O)N[C@@H](CCC(N)=O)C(=O)N[C@@H](CCC(N)=O)C(N)=O)[C@@H](C)CC)[C@@H](C)CC)[C@@H](C)O)[C@@H](C)O)C(C)C)C(C)C [melittin]
- stimulation of PLA2 activity (PLA2): shown to stimulate PLA2 activity
- stimulation of PLA2 activity (PLA2; listed as Melittin): has phospholipase activating activity

Molecule: GLU-SER-PRO-LEU-ILE-ALA-LYS-VAL-LEU-THR-THR-GLU-PRO -PRO-ILE-ILE-THR-PRO-VAL-ARG-ARG-(THR-LEU) [PLAP peptide]
- stimulation of phospholipase A2 activity in vitro (phospholipase A2): stimulated phospholipase A2 activity
- OXI (cytotoxic T lymphocyte) and NRK-1 positive (NK) cells in the infiltrate (mononuclear cells): high numbers
- mononuclear cell infiltrate in tumor tissues (mononuclear cells): stimulated mononuclear cell infiltrate
- survival of mice injected with mammary tumor cells [1]: increased the survival
- amount of LTC4 in exudates from tumors compared with those injected with agarose beads [2]: No changes
- amount of PGE2 in treated tumors compared with tumors injected with agarose beads [2]: 50 fold
- amount of PGI2 in exudates from tumors compared with those injected with agarose beads [2]: No changes
- amount of leukotriene B4 (LTB4) in treated tumors compared with tumors injected with agarose beads [2]: 20 fold
- survival of mice injected with lung tumor cells [3]: increased the survival
- reduction in tumor size as a function of amount administered (C6 glioma cells; rats, 0, 0.25, 0.5 or 1 mg/rat, maximum tumor thickness three days after treatment (FIG. 2)): concentration dependent
- duration of tumor necrosis (C6 glioma cells; rats, 500 μg agarose bound peptide, tumor thickness 3 and 6 days after treatment (FIG. 3)): observed to continue even at 6 days
- tumor regression / size of the tumor (C6 glioma cells; rats, 500 μg agarose complexed peptide, second injection after three days, tumors measured on day 6 (FIG. 1)): profound effect on the size of the tumor
- tumor weight compared with control animals (C6 glioma cells; rats, 500 μg peptide bound to agarose beads, 72 hours): reduction in tumor weight
- tumor necrosis (C6 glioma cells; rats, 500 μg peptide bound to agarose beads, tumor tissues examined after 72 hours): caused significant necrosis

Molecule: TNF-alpha
- stimulation of PLA2 activity (PLA2): shown to stimulate PLA2 activity

B1: PLAP: mouse phospholipase A2 activating protein, molecular mass approximately 28,000 (protein, UniProt P27612 1-794, looked up)
Phospholipase A-2-activating …: MASGASRYRLSCSLPGHELDVRGLVCCLYPPGAFVSVSRDRTTRLWAPDSPNRGFTEMHCMSGHSNFVSCVCIIPSSDIYPHGLIATGGNDHNICIFSLDSPMPLYILKGHKDTVCSLSSGKFGTLLSGSWDTTAKVWLNDKCMMTLQGHTAAVWAVKILPEQGLMLTGSADKTIKLWKAGRCERTFLGHEDCVRGLAILSETEFLSCANDASIRRWQITGECLEVYFGHTNYIYSISVFPNSKDFVTTAEDRSLRIWKHGECAQTIRLPAQSIWCCCVLENGDIVVGASDGIIRVFTESEERTASAEEIKAFERELSQATIDSKTGDLGDINAEQLPGREHLSEPGTREGQTRLIRDGERVEAYQWSVSDGRWIKIGDVVGSSGANQQTSGKVLYEGKEFDYVFSIDVNEGGPSYKLPYNVSDDPWLVAYNFLQKNDLNPMFLDQVAKFIIDNTKGQTLGLGNTSFSDPFTGGGRYVPGTSGPSNTVQTADPFTGAGRYMPGSAGMDTTMTGVDPFTGNSAYRSAASKTVNIYFPKKEALTFDQANPTQILGKLKELNGTAPEEKKLTEDDLVLLEKILSLICNNSSEKPTAQQLQILWKAINWPEDIVFPALDILRLSIKHPNVNENFCNEKGDQFSSHLINLLNPKGKPANQLLALRTFCNCFVSQAGQKLMMSQRESLMSHAIELKSGSNKNIHIALATLTLNYSVCFHKDHNIEGKAQCLSVISTILEVVQDLEATFRLLVALGTLISDDSNAIQLAKSLGVDSQIKKYVSVSEPAKVSECCRLVLHLL
- neutrophil aggregation (neutrophil): stimulates neutrophil aggregation
- neutrophil chemokinesis (neutrophil): stimulates
